Measurements: BindingDB's records for doi:10.1021/jm0011171 (Stockholm University, 2001)

Each compound was assayed against T1, Dimer of Gag-Pol polyprotein [489-587] (Human immunodeficiency virus 1, UniProt P12497) (assay: Protease Inhibition Assay). Settings: pH 5; 30 °C.
T1 construct: 489-587
Method: A fluorimetric assay was used to determine the effects of the inhibitors on HIV-1 protease. This assay used an internally quenched fluorescent peptide substrate. The measurements were performed in 96-well plates with a Fluoroscan plate reader. Excitation and emission wavelengths were 355 nm and 500 nm, respectively.

SMILES | Ki [nM]
O=C(N[C@H]1c2ccccc2C[C@H]1O)[C@H](CCc1ccccc1)[C@@H](O)[C@H](O)[C@@H](CCc1ccccc1)C(=O)N[C@H]1c2ccccc2C[C@H]1O [(2R,3R,4R,5R)-3,4-dihydroxy-N,N'-bis[(1S,2R)-2-hydroxy-2,3-dihydro-1H-inden-1-yl]-2,5-bis(2-phenylethyl)hexanediamide] | 1.1
O=C(N[C@H]1c2ccccc2C[C@H]1O)[C@H](CCc1ccccc1)[C@H](O)[C@H](O)[C@@H](CCc1ccccc1)C(=O)N[C@H]1c2ccccc2C[C@H]1O [N1,N6 -Bis[(2R)-hydroxy-(1S)-indanyl]-(2R,3R,4S,5R)-3,4-dihydroxy-2,5-bis(2-phenylethyl)hexanediamide] | 28
O=C(N[C@H]1c2ccccc2C[C@H]1O)[C@H](OCc1ccccc1)[C@H](O)[C@@H](O)[C@@H](OCc1ccccc1)C(=O)N[C@H]1c2ccccc2C[C@H]1O [symmetric/asymmetric inhibitor 2] | 0.6
